The structures appear in SMILES notation.

The experiment deals with Mycobacterium tuberculosis H37Rv growth inhibition, no glycerol. As to the kind of experiment: Confirmatory growth inhibition assay, Mycobacterium tuberculosis H37Rv, absence of glycerol (AID 449764).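 As to all read-outs here: growth read after 7 days of incubation.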 The conditions noted are these: for IC90: measured here: IC90 growth inhibition.

Usually IC50 stands for the concentration needed to halve the response being measured. A word on the IC90: it is the concentration at which the effect reaches the 90% level. A low value points to greater potency. On to `Cc1nc2sccn2c(=O)c1CCN1CCC(=C(c2ccccc2)c2ccc(F)cc2)CC1`, for which the half-maximal inhibitory concentration (IC50) is 35.8 µM and the concentration for an effect of 90% (IC90) is 51.2 µM.

For the compound `O=C(CN1CCN(c2nc(-c3ccc(F)cc3)cs2)CC1)NCc1ccc2c(c1)OCO2`, the half-maximal inhibitory concentration (IC50) was 38.1 µM and the IC90 turned out to be 55.6 µM.

As to `COc1cc(OC)c(OC)cc1CCC(C)NCCC(c1ccccc1)c1ccccc1` (stereo not given), the concentration for half-maximal inhibition (IC50) is 23.4 µM and the IC90 came to 26.7 µM.

Consider `Cc1nc(N2CCC(C)CC2)c2oc3ccccc3c2n1`, for which the 50% inhibitory concentration (IC50) is 22.6 µM and the 90% effect concentration (IC90) is 30.3 µM.

`Cc1nn(-c2ccccc2)c2c1C(c1ccc([N+](=O)[O-])cc1)N1C(=N2)C(=O)Nc2ccccc21` (stereo not given): the IC50 is 55.3 µM and the IC90 is more than 100 µM.

`COc1cc2cc(C(c3nnnn3C(C)(C)C)N3CCc4ccccc43)c(=O)[nH]c2cc1OC` (stereo not given) returned an IC90 of more than 100 µM.

On to `COc1ccc2[nH]c3c(C)c4ccncc4c(C)c3c2c1`, for which the half-maximal inhibitory concentration (IC50) was 1.33 µM and the concentration for an effect of 90% (IC90) amounted to 1.68 µM.

In the case of `CC(=O)OC1=Cc2c(ccc3ccc(=O)oc23)OC1(C)C`, the half-inhibitory concentration (IC50) is 47.9 µM and the 90% effect concentration (IC90) is more than 100 µM.

As for `O=[N+]([O-])c1cc(Cl)c(O)c(-[n+]2c(-c3ccccc3)cc(-c3ccccc3)cc2-c2ccccc2)c1`, the IC50 was 4.63 µM and the IC90 is 7.3 µM.

On to `O=[N+]([O-])c1ncccc1Oc1nc(-c2cccnc2)nc2ccccc12`, for which the half-inhibitory concentration (IC50) is 0.82 µM and the IC90 stood at 3.87 µM.

With `CCOC(=O)CSCC(=O)N1CCC(Cc2ccccc2)CC1`, the IC50 was 9.38 µM and the 90% effect concentration (IC90) was 16.2 µM.

For the compound `CCOC(=O)CSc1nnc(-c2c[nH]c3ccccc23)o1`, the IC50 was 8.61 µM and the IC90 came out at 22.1 µM.

As for `CCOC(=O)c1sc2nc3n(c(=O)c2c1C)CCC(C)CC3` (stereo not given), the IC50 is 23 µM and the IC90 was 26.4 µM.

Take `COc1ccccc1OCCN1CSC(=S)N(C)C1`: the 50% inhibitory concentration (IC50) was 17.8 µM and the IC90 amounted to 23.9 µM.

On to `CCOC(=O)c1ccc2c(c1)C(=O)N(C1CCCCC1)C2=O`, for which the half-inhibitory concentration (IC50) was 85 µM and the IC90 was more than 100 µM.

On to `COc1cccc(COC(=O)c2ccc3c(=O)n4c(nc3c2)CCC4)c1OC`, for which the IC50 was 28.2 µM and the 90% effect concentration (IC90) is 59 µM.

On to `O=C1/C(=C/Nc2ccc3c(c2)OCO3)CCc2ccccc21`, for which the concentration for half-maximal inhibition (IC50) is 74.7 µM and the IC90 is more than 100 µM.

As for `N#C/C=C\Oc1ccc(Cl)cc1N`, the IC50 is 21.5 µM and the IC90 is 23.9 µM.

For `c1ccc2c(c1)CCN(c1nc(CN3CCOCC3)nc3sc4c(c13)CCCC4)C2`, the concentration for half-maximal inhibition (IC50) was 45.2 µM and the 90% effect concentration (IC90) was determined as 52.7 µM.

On to `Cc1ccc(NC(=O)COc2ccc(-n3ccnc3)cc2)cc1Cl`, for which the IC50 is 44.5 µM and the IC90 was 58.7 µM.

For `O=C(CN1CCC(n2nnc3cc(C(F)(F)F)ccc32)CC1)NCc1cccs1`, the half-maximal inhibitory concentration (IC50) is 37.2 µM and the IC90 turned out to be 47.9 µM.

`CCc1c(C2(O)CCCCC2)[nH]c2ccc(C(F)(F)F)cc12`: the half-inhibitory concentration (IC50) was 40.2 µM and the IC90 was more than 50 µM.

As for `Fc1ccc(C[n+]2c(-c3ccccc3)cc(-c3ccccc3)cc2-c2ccccc2)cc1`, the IC50 was 32.8 µM and the IC90 amounted to 43.9 µM.

With `Cc1cc(C)cc(-n2c(C)c3c(C)nnc(C)c3c2C)c1`, the IC50 was 61.3 µM and the IC90 worked out at 79.7 µM.

For the compound `COc1ccc(CNC[C@@H](CCCCN(C)Cc2ccc(OC)cc2)N2C[C@H](c3ccccc3)N(CCc3ccc(Cl)c(Cl)c3)C(=O)C2=O)cc1`, the IC50 was 10.5 µM and the 90% effect concentration (IC90) worked out at 14 µM.

As to `C=CCN(CC(=O)c1sc(C(=O)OCC)nc1C)c1cccc(Br)c1`, the IC50 is 20.8 µM and the 90% effect concentration (IC90) is 32.6 µM.

As to `O=C(Nc1nnc(-c2ccccc2)o1)c1cc(-c2cccs2)nc2ccccc12`, the half-maximal inhibitory concentration (IC50) was 1.76 µM and the IC90 was found to be 2.94 µM.

As for `Cc1cc(OC(=O)c2cccs2)c2c3c(c(=O)oc2c1)CCCC3`, the IC50 was 4.18 µM and the IC90 came out at 8.9 µM.

The values above are taken from PubChem BioAssay AID449764 (Southern Research Specialized Biocontainment Screening …, 2010).
